Data: US5519034A, “Tetraisoquinoline compounds which have useful pharmaceutical utility” (The Boots Company PLC, priority 1991, dated 1996)
Read-outs that look alike come from different tables or passages of the source.

Legend:
[1] = biological target: T1, D2 dopamine receptors (Rattus norvegicus, UniProt P61169); assay: D2 dopamine receptor binding: inhibition of tritiated (S)-sulpiride binding, rat striatal samples; set-up: species or system rat (male Charles River CD rats); conditions: for Ki: rat striatum, tritiated (S)-sulpiride; for Ki for D2 / Ki for D1: ratio to two significant figures
T1 construct: Striatal samples from the brains of male Charles River CD rats; from tissue; host or cells: striatum of male Charles River CD rats (washed membrane pellet)
Method: (§1) Striatal samples from the brains of male Charles River CD rats weighing between 140-250 g were homogenised in ice-cold 50 mM Tris-HCl buffer (pH 7.4 when measured at 25° C. for D1 binding assays and pH 7.7 when measured at 25° C. for D2 binding assays) and centrifuged for 10 minutes (at 21,000 g when used for D1binding assay and 40,000 g when used for D2binding assays). The pellet was resuspended in the same buffer, again centrifuged and the final pellet stored at -80° C. Before each test the pellet was resuspended in 50 mM Tris-HCl buffer containing 120 mM NaCl, 5 mM KCl, 2 mM CaCl2 and 1 mM MgCl2 at pH 7.4 for the D1 binding assays and at pH 7.7 with the addition of 6 mM ascorbic acid for the D2 binding assays. Aliquots of this suspension were then added to tubes containing the ligand and either the compound under test or buffer. For the D1 binding assays the ligand was tritiated SCH 23390 and the mixture was incubated at 37° C. for 30 minutes before the incubation was terminated by rapid filtration. For the D2 binding assays the ligand was tritiated (S)-sulpiride and the mixture was incubated at 4° C. for 40 minutes before the incubation was terminated by rapid filtration. Non-specific binding was determined experimentally by the addition of saturating concentrations of chloropromazine or spiroperidol for D1 and D2 receptors respectively.
(§2) The filters were washed with ice-cold Tris-HCl buffer and dried. The filters were punched out on to vials containing scintillation fluid and were left for about 20 hours before being counted by scintillation spectrophotometry. Displacement curves were produced over a range of concentrations of the compound under test and the concentration which gave a 50% inhibition of specific binding (IC50) obtained from the curve. The inhibition coefficient Ki was then calculated using the formula [formula] in which [ligand] is the concentration of the tritiated ligand used and KD is the equilibrium dissociation constant for the ligand.
(§3) In some cases Ki values for D2 binding were estimated from single concentration data by the application of the Langmuir adsorption isotherm equation. These cases are indicated by an "E" in the last two columns of Table I. In other cases it was not possible to determine or estimate the Ki and the Ki value is given as greater than (>) that which would result from the application of the above formula to the highest concentration which displaced ≤50% of the ligand.

[2] = biological target: T2, D1 dopamine receptors (Rattus norvegicus, UniProt P18901); assay: D1 dopamine receptor binding: inhibition of tritiated SCH 23390 binding, rat striatal samples; set-up: species or system rat (male Charles River CD rats); conditions: rat striatum, tritiated SCH 23390, pH 7.4, 37° C., 30 minutes
T2 construct: Striatal samples from the brains of male Charles River CD rats; from tissue; host or cells: striatum of male Charles River CD rats (washed membrane pellet)
Method: as §1, §2, §3

[3] = pH 7.7, 4° C., 40 minutes, > = from highest concentration which displaced ≤50% of the ligand, read-out: Ki for D2 binding
[4] = estimated from single concentration data by Langmuir adsorption isotherm equation, read-out: Ki for D2 binding (marked E)

T2 sequence (P18901 whole entry): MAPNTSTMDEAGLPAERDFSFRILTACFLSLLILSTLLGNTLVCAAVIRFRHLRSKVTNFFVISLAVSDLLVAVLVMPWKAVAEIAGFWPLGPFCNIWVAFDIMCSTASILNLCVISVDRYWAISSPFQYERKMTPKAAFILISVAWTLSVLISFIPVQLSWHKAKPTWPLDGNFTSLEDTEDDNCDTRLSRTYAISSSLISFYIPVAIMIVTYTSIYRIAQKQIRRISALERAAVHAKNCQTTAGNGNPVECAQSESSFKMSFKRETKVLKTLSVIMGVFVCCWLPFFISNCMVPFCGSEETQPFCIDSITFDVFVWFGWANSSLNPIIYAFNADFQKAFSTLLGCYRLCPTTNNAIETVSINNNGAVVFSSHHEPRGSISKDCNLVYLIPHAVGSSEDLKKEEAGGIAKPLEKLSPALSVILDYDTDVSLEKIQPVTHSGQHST
T1 sequence (P61169 whole entry): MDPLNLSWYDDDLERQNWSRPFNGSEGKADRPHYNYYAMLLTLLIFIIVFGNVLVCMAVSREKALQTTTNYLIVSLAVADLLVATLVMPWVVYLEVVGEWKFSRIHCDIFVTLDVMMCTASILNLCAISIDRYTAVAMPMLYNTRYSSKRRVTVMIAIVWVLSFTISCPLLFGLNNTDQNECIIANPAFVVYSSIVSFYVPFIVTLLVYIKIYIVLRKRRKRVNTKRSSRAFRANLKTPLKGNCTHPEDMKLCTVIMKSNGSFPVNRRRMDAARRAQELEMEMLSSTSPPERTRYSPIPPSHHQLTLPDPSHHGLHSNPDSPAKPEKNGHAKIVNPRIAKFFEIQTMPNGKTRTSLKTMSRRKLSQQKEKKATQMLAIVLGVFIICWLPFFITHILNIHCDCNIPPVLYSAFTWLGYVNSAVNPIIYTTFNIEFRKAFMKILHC

SMILES | Ki [1, 3] [nM] | Ki for D2 / Ki for D1 [1] | Ki [2] [nM] | Ki [1, 4] [nM]
CN1CCc2cc(O)c(O)cc2C1C1(c2ccccc2Cl)CCC1 (stereo not drawn) [Example 2, 1-[1-(2-chlorophenyl)cyclobutyl]-6,7-dihydroxy-2-methyl-1,2,3,4-tetrahydroisoquinoline] | 12000 | 1700 | 7.2 | 
CN1CCc2cc(F)c(O)cc2C1C1(c2ccccc2Cl)CC1 (stereo not drawn) [Example 63, 1-[1-(2-chlorophenyl)cyclopropyl]-6-fluoro-7-hydroxy-2-methyl-1,2,3,4-tetrahydroisoquinoline] | 1600 | 800 | 2 | 
Cc1ccccc1C1(C2c3cc(O)c(O)cc3CCN2C)CCC1 (stereo not drawn) [Example 4, 6,7-dihydroxy-2-methyl-1-[1-(o-tolyl)cyclobutyl]-1,2,3,4-tetrahydroisoquinoline] | 260000 | 9000 | 29 | 
COc1cc2c(cc1O)C(C1(c3cccc4ccccc34)CC1)N(C)CC2 (stereo not drawn) [Example 43, 7-hydroxy-6-methoxy-2-methyl-1-[1-(1-naphthyl)cyclopropyl]-1,2,3,4-tetrahydroisoquinoline] | 860 | 610 | 1.4 | 
CN1CCc2cc(F)c(O)cc2C1C1(c2ccc(Cl)cc2Cl)CC1 (stereo not drawn) [Example 81, 1-[1-(2,4-dichlorophenyl)cyclopropyl]-6-fluoro-7-hydroxy-2-methyl-1,2,3,4-tetrahydroisoquinoline] | 330 | 170 | 1.9 | 
CN1CCc2cc(Cl)c(O)cc2C1C1(c2ccccc2)CC(C)(C)C1 (stereo not drawn) [Example 30, 6-chloro-7-hydroxy-2-methyl-1-(3,3-dimethyl-1-phenylcyclobutyl)-1,2,3,4-tetrahydroisoquinoline] | > 5000 | > 76 | 66 | 
CN1CCc2cc(O)c(O)cc2C1C1(c2ccccc2)CCC1 (stereo not drawn) [Example 45, 6,7-dihydroxy-2-methyl-1-(1-phenylcyclobutyl)-1,2,3,4-tetrahydroisoquinoline] | > 500 | > 21 | 24 | 
CN1CCc2cc(O)c(O)cc2C1C1(c2cccc(C(F)(F)F)c2)CCC1 (stereo not drawn) [Example 8, 6,7-dihydroxy-2-methyl-1-[1-(3-trifluoromethylphenyl)cyclobutyl]-1,2,3,4-tetrahydroisoquinoline] | > 5000 | > 16 | 310 | 
COc1cc2c(cc1O)C(C1(c3ccccc3Br)CCC1)N(C)CC2 (stereo not drawn) [Example 68, 1-[1-(2-bromophenyl)cyclobutyl]-7-hydroxy-6-methoxy-2-methyl-1,2,3,4-tetrahydroisoquinoline] | 1900 | 950 | 2 | 
C=CCN1CCc2cc(Cl)c(O)cc2C1C1(c2ccccc2)CCC1 (stereo not drawn) [Example 65, 2-allyl-6-chloro-7-hydroxy-1-(1-phenylcyclobutyl)-1,2,3,4-tetrahydroisoquinoline] | 51000 | 2300 | 22 | 
CN1CCc2cc(O)c(O)cc2C1C1(c2ccccc2)CCCC1 (stereo not drawn) [Example 15, 6,7-dihydroxy-2-methyl-1-(1-phenylcyclopentyl)-1,2,3,4-tetrahydroisoquinoline] | > 5000 | > 25 | 200 | 
COc1cc2c(cc1O)C(C1(c3ccccc3)CCC1)N(C)CC2 (stereo not drawn) [Example 55, 7-hydroxy-6-methoxy-2-methyl-1-(1-phenylcyclobutyl)-1,2,3,4-tetrahydroisoquinoline] | > 500 | > 12 | 41 | 
CN1CCc2cc(F)c(O)cc2C1C1(c2ccc(Cl)cc2Cl)CCC1 (stereo not drawn) [Example 9, 1-[1-(2,4-dichlorophenyl)cyclobutyl]-6-fluoro-7-hydroxy-2-methyl-1,2,3,4-tetrahydroisoquinoline] | 1800 | 950 | 1.9 | 
COc1cc2c(cc1O)C(C1(c3ccccc3)CCCC1)N(C)CC2 (stereo not drawn) [Example 48] |  |  | 94 | 3000
CN1CCc2cc(O)c(Cl)cc2C1C1(c2ccccc2)CCC1 (stereo not drawn) [Example 31, 7-chloro-6-hydroxy-2-methyl-1-(1-phenylcyclobutyl)-1,2,3,4-tetrahydroisoquinoline] |  |  | 540 | 11000
CN1CCc2cc(Cl)c(O)cc2C1C1(c2ccc(Cl)cc2)CCC1 (stereo not drawn) [Example 53, 6-chloro-1-[1-(4-chlorophenyl)cyclobutyl]-7-hydroxy-2-methyl-1,2,3,4-tetrahydroisoquinoline] | 7600 | 320 | 24 | 
Cc1cc2c(cc1O)C(C1(c3ccccc3Cl)CCC1)N(C)CC2 (stereo not drawn) [Example 10, 1-[1-(2-chlorophenyl)cyclobutyl]-7-hydroxy-2,6-dimethyl-1,2,3,4-tetrahydroisoquinoline] | 2500 | 1600 | 1.6 | 
CN1CCc2cc(Cl)c(O)cc2C1C1(c2ccccc2)CCC1 (stereo not drawn) [Example 28, 6-chloro-7-hydroxy-2-methyl-1-(1-phenylcyclobutyl)-1,2,3,4-tetrahydroisoquinoline] | 3600 | 330 | 11 | 
COc1cc2c(cc1O)C(C1(c3ccccc3Cl)CC1)N(C)CC2 (single isomer, unassigned; (+)) [Example 85, (+)-1-[1-(2-chlorophenyl)cyclopropyl]-7-hydroxy-6-methoxy-2-methyl-1,2,3,4-tetrahydroisoquinoline] | 900 | 3200 | 0.28 | 
CN1CCc2cc(O)c(O)cc2C1C1(c2ccccc2F)CCC1 (stereo not drawn) [Example 7, 1-[1-(2-fluorophenyl)cyclobutyl]-6,7-dihydroxy-2-methyl-1,2,3,4-tetrahydroisoquinoline] | 2900 | 140 | 21 | 
COc1cc2c(cc1O)C(C1(c3ccccc3Cl)CC(C)(C)C1)N(C)CC2 (stereo not drawn) [Example 70, 7-hydroxy-6-methoxy-2-methyl-1-[1-(2-chlorophenyl)-3,3-dimethylcyclobutyl]-1,2,3,4-tetrahydroisoquinoline] | 35000 | 1700 | 21 | 
COCCN1CCc2cc(OC)c(O)cc2C1C1(c2ccccc2Cl)CC1 (stereo not drawn) [Example 75, 1-[1-(2-chlorophenyl)cyclopropyl]-7-hydroxy-6-methoxy-2-(2-methoxyethyl)-1,2,3,4-tetrahydroisoquinoline] | > 5000 | > 33 | 150 | 
CN1CCc2cc(O)c(O)cc2C1C1(c2ccccc2Br)CCC1 (stereo not drawn) [Example 1, 1-[1-(2-bromophenyl)cyclobutyl]-6,7-dihydroxy-2-methyl-1,2,3,4-tetrahydroisoquinoline] | 1000 | 250 | 4 | 
CN1CCc2cc(O)c(O)cc2C1C1(c2ccccc2C(F)(F)F)CCC1 (stereo not drawn) [Example 23, 6,7-dihydroxy-2-methyl-1-[1-(2-trifluoromethylphenyl)cyclobutyl]-1,2,3,4-tetrahydroisoquinoline] | 15000 | 830 | 18 | 
CN1CCc2cc(O)c(O)cc2C1C1(c2ccc(O)cc2)CCCC1 (stereo not drawn) [Example 19, 6,7-dihydroxy-1-[1-(4-hydroxyphenyl)cyclopentyl]-2-methyl-1,2,3,4-tetrahydroisoquinoline] |  |  | 190 | 7000
COc1cc2c(cc1O)C(C1(c3ccc(Cl)cc3Cl)CCC1)N(C)CC2 (stereo not drawn) [Example 37, 1-[1-(2,4-dichlorophenyl)cyclobutyl]-7-hydroxy-6-methoxy-2-methyl-1,2,3,4-tetrahydroisoquinoline] | 5300 | 8800 | 0.6 | 
Cc1cc2c(cc1O)C(C1(c3ccccc3Cl)CC1)N(C)CC2 (single isomer, unassigned; (+)) [Example 80, (+)-1-[1-(2-chlorophenyl)cyclopropyl]-7-hydroxy-2,6-dimethyl-1,2,3,4-tetrahydroisoquinoline] | 370 | 550 | 0.67 | 
COc1cc2c(cc1O)C(C1(c3ccccc3Cl)CCC1)N(C)CC2 (stereo not drawn) [Example 69, 1-[1-(2-chlorophenyl)cyclobutyl]-7-hydroxy-6-methoxy-2-methyl-1,2,3,4-tetrahydroisoquinoline] | 5800 | 2800 | 2.1 | 
